Test system: SLI-N330K parasites
Assay: Growth inhibition assay (72 h, LDH activity)
Assay type: cell-based, Plasmodium falciparum
Protocol: Parasite growth assays with inhibitory compounds were performed as per[11] and are fully described in the Supplementary Information.
Molecular biology and transfection of P. falciparum: Selection Linked Integration […]
To introduce the PfSTART1 mutations, the second half of the coding sequence of pfstart1 (PF3D7_0104200), was recodonised without introns to the bias of Saccharomyces cerevisiae containing either WT, N309K or N330K mutations, and synthesised as gBlock fragments (Integrated DNA Technologies). The first 819 bp of the 5′ native sequence of pfstart1 was amplified from gDNA, to form the 5’ homology block (5’ HB). The 3′ recodonised gBlock fragment comprising of the last 552 bp of either the WT, N309K or N330K pfstart1 to form the ‘recodon’ block (primers listed in Table S2). The 5’ HB and recodon products were sewn together by overlapping PCR to reconstitute the full coding sequence of pfstart1. These blocks (WT/N309K/N330K) were digested with BglII/PstI, and inserted into the parasite vector p-HA-2A-Neo-glmS
1. This plasmid contains an in -frame haemagglutinin (HA) epitope for protein identification and a P2A peptide (2A) to skip continuous peptide bond synthesis of a downstream neomycin resistance gene ( NeoR).
Parasites containing the transfected DNA were selected using 2.5 nM WR99210 (Jacobus). To select for parasites in which single crossover integration had occurred into the pfstart1 locus, parasites were treated with 400 μg/mL G418 (geniticin, Sigma Aldrich) for 14 days: only parasites that have integrated the construct into their genome expressed the neomycin resistance gene together with the PfSTART1 protein.
Parasite lines were cloned using limiting dilution. These clones were then tested on Western Blot (for correct HA-tagging and protein size), and correct integration and sequence were tested by PCR analysis: PCR on the gDNA was conducted using the primers START_5’UTR.F and START_Seq.R (Table S2). […]
Growth inhibition assays. Synchronised ring-stage parasites (0.3-0.6% parasitemia, 2% haematocrit) were grown for 72 h in a serial-dilution of the compound under […]
and compound 4. Note that M-833 was first purchased from MolPort (MolPort -002-267-916) then made in-house at WEHI: the differences observed in EC50s across experiments are attributed to the different batches of M -833. For some experiments, 0, 0.25 or 2.5 mM of glucosamine (GlcN) was also added. Experiments were set up in technical duplicates or triplicates. Following a freeze -thaw cycle, lactate dehydrogenase (LDH) activity was assessed as an indicator of parasite growt h 5. 30 μL of parasite culture was incubated for 30 min in the dark with 75 μL Malstat mixture (0.1 M Tris pH 9.0, 20 g/L lactic acid, pH 7.5, 0.2% Triton-X100, 0.5 g/L acetylpyridine adenine dinucleotide (APAD, Sigma), 200 μg/mL nitroblue tetrazolium (NBT; Sigma), 1 μg/mL phenozine ethosulfate (PES; Sigma)). Absorbance was then measured at 650 nm, transformed using the formula below, plotted against the logarithm of the concentrations, and a non-linear regression (log(inhibitor) vs. response, variable slope) was calculated using GraphPad Prism to assess the half-inhibitory […]
Growth inhibition % = (1 − average(sample)− average(uRBC)) ∗ 100 […]
The DMSO samples were also used to assess growth of parasite in the presence of 0.25 and 2.5 mM GlcN (normalised by DMSO in 0 mM GlcN).
Egress, invasion & recovery assay. To measure egress, invasion and follow up recovery in the presence of different compounds, we adapted the method developed in6, using Hyp1-Nluc parasites7. These parasites episomally express the exported PEXEL protein Hyp1 (PF3D7_0113300) tagged with a NanoLuc luciferase (NLuc) and were selected with 2.5 nM WR99210 (Jacobus). Highly synchronised schizonts were obtained using ML10 (LifeArc) and sorbitol synchronisation, and Percoll-purified (the culture was gently layered over 67% Percoll (Cytiva) in RPMI, and centrifuged for 15 min at 1500 g and the schizont layer was collected and washed). […]

For `Cc1cc(Cl)c(S(=O)(=O)N2CCCC2)cc1OCC(=O)NC1CCCCC1` [M-833], the sample/DMSO (0.00152416 uM M-833, START(N330K), 0 mM GlcN, biological replicate 2) was 1.655, the sample/DMSO (0.00152416 uM M-833, START(N330K), 0.25 mM GlcN, biological replicate 1) was -2.909 and the sample/DMSO (0.00152416 uM M-833, START(N330K), 0.25 mM GlcN, biological replicate 2) was 8.825. The sample/DMSO (0.00152416 uM M-833, START(N330K), 2.5 mM GlcN, biological replicate 1) was 11.1758, the sample/DMSO (0.00457247 uM M-833, START(N330K), 0 mM GlcN, biological replicate 1) was 3.2212 and the sample/DMSO (0.00457247 uM M-833, START(N330K), 0 mM GlcN, biological replicate 2) was 9.585. For the same molecule, the sample/DMSO (0.00457247 uM M-833, START(N330K), 0 mM GlcN, biological replicate 3) was 4.929, the sample/DMSO (0.00457247 uM M-833, START(N330K), 0 mM GlcN, biological replicate 4) was -5.471 and the sample/DMSO (0.00457247 uM M-833, START(N330K), 0.25 mM GlcN, biological replicate 1) was 0.8993. The sample/DMSO (0.00457247 uM M-833, START(N330K), 0.25 mM GlcN, biological replicate 2) was 9.092, the sample/DMSO (0.00457247 uM M-833, START(N330K), 0.25 mM GlcN, biological replicate 3) was -0.2009 and the sample/DMSO (0.00457247 uM M-833, START(N330K), 0.25 mM GlcN, biological replicate 4) was -11.7886. The sample/DMSO (0.00457247 uM M-833, START(N330K), 2.5 mM GlcN, biological replicate 1) was 14.0279, the sample/DMSO (0.00457247 uM M-833, START(N330K), 2.5 mM GlcN, biological replicate 2) was 17.9639 and the sample/DMSO (0.00457247 uM M-833, START(N330K), 2.5 mM GlcN, biological replicate 3) was -5.165. The sample/DMSO (0.00457247 uM M-833, START(N330K), 2.5 mM GlcN, biological replicate 4) was -8.571, the sample/DMSO (0.0137174 uM M-833, START(N330K), 0 mM GlcN, biological replicate 1) was 7.141 and the sample/DMSO (0.0137174 uM M-833, START(N330K), 0 mM GlcN, biological replicate 2) was 7.124. For the same molecule, the sample/DMSO (0.0137174 uM M-833, START(N330K), 0 mM GlcN, biological replicate 3) was -3.262, the sample/DMSO (0.0137174 uM M-833, START(N330K), 0 mM GlcN, biological replicate 4) was 6.3139 and the sample/DMSO (0.0137174 uM M-833, START(N330K), 0.25 mM GlcN, biological replicate 1) was 1.512. For the same molecule, the sample/DMSO (0.0137174 uM M-833, START(N330K), 0.25 mM GlcN, biological replicate 2) was 8.325, the sample/DMSO (0.0137174 uM M-833, START(N330K), 0.25 mM GlcN, biological replicate 3) was 2.478 and the sample/DMSO (0.0137174 uM M-833, START(N330K), 0.25 mM GlcN, biological replicate 4) was 0. For the same molecule, the sample/DMSO (0.0137174 uM M-833, START(N330K), 2.5 mM GlcN, biological replicate 1) was 15.7451, the sample/DMSO (0.0137174 uM M-833, START(N330K), 2.5 mM GlcN, biological replicate 2) was 11.3968 and the sample/DMSO (0.0137174 uM M-833, START(N330K), 2.5 mM GlcN, biological replicate 3) was -4.719. It also gave a sample/DMSO (0.0137174 uM M-833, START(N330K), 2.5 mM GlcN, biological replicate 4) of -3.372, a sample/DMSO (0.0411523 uM M-833, START(N330K), 0 mM GlcN, biological replicate 1) of 8.934 and a sample/DMSO (0.0411523 uM M-833, START(N330K), 0 mM GlcN, biological replicate 2) of 2.634. The sample/DMSO (0.0411523 uM M-833, START(N330K), 0 mM GlcN, biological replicate 3) was 5.053, the sample/DMSO (0.0411523 uM M-833, START(N330K), 0 mM GlcN, biological replicate 4) was -9.704 and the sample/DMSO (0.0411523 uM M-833, START(N330K), 0.25 mM GlcN, biological replicate 1) was 4.325. It also gave a sample/DMSO (0.0411523 uM M-833, START(N330K), 0.25 mM GlcN, biological replicate 2) of -8.575, a sample/DMSO (0.0411523 uM M-833, START(N330K), 0.25 mM GlcN, biological replicate 3) of -3.728 and a sample/DMSO (0.0411523 uM M-833, START(N330K), 0.25 mM GlcN, biological replicate 4) of -6.829. The sample/DMSO (0.0411523 uM M-833, START(N330K), 2.5 mM GlcN, biological replicate 1) was 19.2666, the sample/DMSO (0.0411523 uM M-833, START(N330K), 2.5 mM GlcN, biological replicate 2) was 13.1689 and the sample/DMSO (0.0411523 uM M-833, START(N330K), 2.5 mM GlcN, biological replicate 3) was 1.449. It also gave a sample/DMSO (0.0411523 uM M-833, START(N330K), 2.5 mM GlcN, biological replicate 4) of -4.731, a sample/DMSO (0.123457 uM M-833, START(N330K), 0 mM GlcN, biological replicate 1) of 11.901 and a sample/DMSO (0.123457 uM M-833, START(N330K), 0 mM GlcN, biological replicate 2) of 1.439. For the same molecule, the sample/DMSO (0.123457 uM M-833, START(N330K), 0 mM GlcN, biological replicate 3) was 5.443, the sample/DMSO (0.123457 uM M-833, START(N330K), 0 mM GlcN, biological replicate 4) was 0.2691 and the sample/DMSO (0.123457 uM M-833, START(N330K), 0.25 mM GlcN, biological replicate 1) was 10.3138. It also gave a sample/DMSO (0.123457 uM M-833, START(N330K), 0.25 mM GlcN, biological replicate 2) of 8.225 and a sample/DMSO (0.123457 uM M-833, START(N330K), 0.25 mM GlcN, biological replicate 3) of 5.9375.

Source: publication PMC11189555, “Aryl amino acetamides prevent Plasmodium falciparum ring development via targeting the lipid-transfer protein PfSTART1” (Nature Communications, 2024)
